Reference: the supplement of paper PMC10307832

Legend:
Assay in all cases: relative viability (nuclei count vs DMSO), 5 days (fraction); higher = more cells survive
Zebularine + Tozasertib = compound: O=c1ncccn1[C@@H]1O[C@H](CO)[C@@H](O)[C@H]1O [Zebularine] + Cc1cc(Nc2cc(N3CCN(C)CC3)nc(Sc3ccc(NC(=O)C4CC4)cc3)n2)n[nH]1 [Tozasertib] (partner 0.1 µM)
Summary of the method: (§1)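 Relative viability was taken as the ratio of nuclei in treated wells to nuclei in vehicle wells. Lung cancer cell lines in 1536-well plates received compounds by pin tool one day after seeding, either one drug alone or a fixed anchor-drug dose plus five library-drug doses (not always all listed) in √10 steps. Nuclei were counted on 4× images after 5 days of treatment, and values are medians of duplicate plates.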

Zebularine + Pemetrexed = compound: O=c1ncccn1[C@@H]1O[C@H](CO)[C@@H](O)[C@H]1O [Zebularine] + Nc1nc2[nH]cc(CCc3ccc(C(=O)N[C@@H](CCC(=O)O)C(=O)O)cc3)c2c(=O)[nH]1 [Pemetrexed] (partner 0.2 µM)
Summary of the method: as §1

BI-D1870 + Dasatinib = compound: CC(C)CCN1c2nc(Nc3cc(F)c(O)c(F)c3)ncc2N(C)C(=O)C1C [BI-D1870] + Cc1nc(Nc2ncc(C(=O)Nc3c(C)cccc3Cl)s2)cc(N2CCN(CCO)CC2)n1 [Dasatinib] (partner 0.075 µM)
Summary of the method: as §1

Zebularine + Bortezomib = compound: O=c1ncccn1[C@@H]1O[C@H](CO)[C@@H](O)[C@H]1O [Zebularine] + CC(C)C[C@H](NC(=O)[C@H](Cc1ccccc1)NC(=O)c1cnccn1)B(O)O [Bortezomib] (partner 0.002 µM)
Summary of the method: as §1

## HCC-366
Zebularine + Tozasertib; first compound 1 µM
  relative viability: 0.169
Zebularine + Tozasertib; first compound 3.162 µM
  relative viability: 0.112
Zebularine + Tozasertib; first compound 10 µM
  relative viability: 0.182
Zebularine + Tozasertib; first compound 31.62 µM
  relative viability: 0.132
Zebularine + Tozasertib; first compound 100 µM
  relative viability: 0.0608
Zebularine + Pemetrexed; first compound 1 µM
  relative viability: 0.168
Zebularine + Pemetrexed; first compound 3.162 µM
  relative viability: 0.179
Zebularine + Pemetrexed; first compound 10 µM
  relative viability: 0.136
Zebularine + Pemetrexed; first compound 31.62 µM
  relative viability: 0.192
Zebularine + Pemetrexed; first compound 100 µM
  relative viability: 0.0894
BI-D1870 + Dasatinib; first compound 0.04 µM
  relative viability: 0.633
BI-D1870 + Dasatinib; first compound 0.1265 µM
  relative viability: 0.528
BI-D1870 + Dasatinib; first compound 0.4 µM
  relative viability: 0.603
BI-D1870 + Dasatinib; first compound 1.265 µM
  relative viability: 0.731
BI-D1870 + Dasatinib; first compound 4 µM
  relative viability: 0.427
Zebularine + Bortezomib; first compound 1 µM
  relative viability: 1.05
Zebularine + Bortezomib; first compound 3.162 µM
  relative viability: 0.976
Zebularine + Bortezomib; first compound 10 µM
  relative viability: 0.292
Zebularine + Bortezomib; first compound 31.62 µM
  relative viability: 0.685
Zebularine + Bortezomib; first compound 100 µM
  relative viability: 0.116

## HCC-827
Zebularine + Tozasertib; first compound 1 µM
  relative viability: 0.417
Zebularine + Tozasertib; first compound 3.162 µM
  relative viability: 0.445
Zebularine + Tozasertib; first compound 10 µM
  relative viability: 0.306
Zebularine + Tozasertib; first compound 31.62 µM
  relative viability: 0.373
Zebularine + Tozasertib; first compound 100 µM
  relative viability: 0.196
Zebularine + Pemetrexed; first compound 1 µM
  relative viability: 0.328
Zebularine + Pemetrexed; first compound 3.162 µM
  relative viability: 0.254
Zebularine + Pemetrexed; first compound 10 µM
  relative viability: 0.229
Zebularine + Pemetrexed; first compound 31.62 µM
  relative viability: 0.243
Zebularine + Pemetrexed; first compound 100 µM
  relative viability: 0.235
BI-D1870 + Dasatinib; first compound 0.04 µM
  relative viability: 0.383
BI-D1870 + Dasatinib; first compound 0.1265 µM
  relative viability: 0.373
BI-D1870 + Dasatinib; first compound 0.4 µM
  relative viability: 0.321
BI-D1870 + Dasatinib; first compound 1.265 µM
  relative viability: 0.412
BI-D1870 + Dasatinib; first compound 4 µM
  relative viability: 0.26
Zebularine + Bortezomib; first compound 1 µM
  relative viability: 1.12
Zebularine + Bortezomib; first compound 3.162 µM
  relative viability: 1.06
Zebularine + Bortezomib; first compound 10 µM
  relative viability: 0.875
Zebularine + Bortezomib; first compound 31.62 µM
  relative viability: 0.773
Zebularine + Bortezomib; first compound 100 µM
  relative viability: 0.506

## HOP-62
Zebularine + Tozasertib; first compound 1 µM
  relative viability: 0.503
Zebularine + Tozasertib; first compound 3.162 µM
  relative viability: 0.396
Zebularine + Tozasertib; first compound 10 µM
  relative viability: 0.212
Zebularine + Tozasertib; first compound 31.62 µM
  relative viability: 0.154
Zebularine + Tozasertib; first compound 100 µM
  relative viability: 0.167
Zebularine + Pemetrexed; first compound 1 µM
  relative viability: 0.326
Zebularine + Pemetrexed; first compound 3.162 µM
  relative viability: 0.316
Zebularine + Pemetrexed; first compound 10 µM
  relative viability: 0.239
Zebularine + Pemetrexed; first compound 31.62 µM
  relative viability: 0.186
Zebularine + Pemetrexed; first compound 100 µM
  relative viability: 0.139
BI-D1870 + Dasatinib; first compound 0.04 µM
  relative viability: 0.707
BI-D1870 + Dasatinib; first compound 0.1265 µM
  relative viability: 0.675
BI-D1870 + Dasatinib; first compound 0.4 µM
  relative viability: 0.603
BI-D1870 + Dasatinib; first compound 1.265 µM
  relative viability: 0.66
BI-D1870 + Dasatinib; first compound 4 µM
  relative viability: 0.524
Zebularine + Bortezomib; first compound 1 µM
  relative viability: 0.593
Zebularine + Bortezomib; first compound 3.162 µM
  relative viability: 0.741
Zebularine + Bortezomib; first compound 10 µM
  relative viability: 0.547
Zebularine + Bortezomib; first compound 31.62 µM
  relative viability: 0.201
Zebularine + Bortezomib; first compound 100 µM
  relative viability: 0.143

## IA-LM
Zebularine + Bortezomib; first compound 1 µM
  relative viability: 0.63
Zebularine + Bortezomib; first compound 3.162 µM
  relative viability: 0.892
Zebularine + Bortezomib; first compound 10 µM
  relative viability: 0.617
Zebularine + Bortezomib; first compound 31.62 µM
  relative viability: 1.03
Zebularine + Bortezomib; first compound 100 µM
  relative viability: 0.672

## LC-2-ad
Zebularine + Tozasertib; first compound 1 µM
  relative viability: 0.413
Zebularine + Tozasertib; first compound 3.162 µM
  relative viability: 0.427
Zebularine + Tozasertib; first compound 10 µM
  relative viability: 0.347
Zebularine + Tozasertib; first compound 31.62 µM
  relative viability: 0.422
Zebularine + Tozasertib; first compound 100 µM
  relative viability: 0.396
Zebularine + Pemetrexed; first compound 1 µM
  relative viability: 0.276
Zebularine + Pemetrexed; first compound 3.162 µM
  relative viability: 0.289
Zebularine + Pemetrexed; first compound 10 µM
  relative viability: 0.27
Zebularine + Pemetrexed; first compound 31.62 µM
  relative viability: 0.255
Zebularine + Pemetrexed; first compound 100 µM
  relative viability: 0.259
BI-D1870 + Dasatinib; first compound 0.04 µM
  relative viability: 1.05
BI-D1870 + Dasatinib; first compound 0.1265 µM
  relative viability: 0.576
BI-D1870 + Dasatinib; first compound 0.4 µM
  relative viability: 0.473
BI-D1870 + Dasatinib; first compound 1.265 µM
  relative viability: 0.578
BI-D1870 + Dasatinib; first compound 4 µM
  relative viability: 0.43
Zebularine + Bortezomib; first compound 1 µM
  relative viability: 1.09
Zebularine + Bortezomib; first compound 3.162 µM
  relative viability: 0.76
Zebularine + Bortezomib; first compound 10 µM
  relative viability: 0.521
Zebularine + Bortezomib; first compound 31.62 µM
  relative viability: 0.605
Zebularine + Bortezomib; first compound 100 µM
  relative viability: 0.148

## LCLC-97TM1
Zebularine + Tozasertib; first compound 1 µM
  relative viability: 0.253
Zebularine + Tozasertib; first compound 3.162 µM
  relative viability: 0.225
Zebularine + Tozasertib; first compound 10 µM
  relative viability: 0.191
Zebularine + Tozasertib; first compound 31.62 µM
  relative viability: 0.102
Zebularine + Tozasertib; first compound 100 µM
  relative viability: 0.115
Zebularine + Pemetrexed; first compound 1 µM
  relative viability: 0.167
Zebularine + Pemetrexed; first compound 3.162 µM
  relative viability: 0.172
Zebularine + Pemetrexed; first compound 10 µM
  relative viability: 0.13
Zebularine + Pemetrexed; first compound 31.62 µM
  relative viability: 0.146
Zebularine + Pemetrexed; first compound 100 µM
  relative viability: 0.0657
BI-D1870 + Dasatinib; first compound 0.04 µM
  relative viability: 0.932
BI-D1870 + Dasatinib; first compound 0.1265 µM
  relative viability: 0.833
BI-D1870 + Dasatinib; first compound 0.4 µM
  relative viability: 0.947
BI-D1870 + Dasatinib; first compound 1.265 µM
  relative viability: 0.899
BI-D1870 + Dasatinib; first compound 4 µM
  relative viability: 0.709
Zebularine + Bortezomib; first compound 1 µM
  relative viability: 1.41
Zebularine + Bortezomib; first compound 3.162 µM
  relative viability: 0.627
Zebularine + Bortezomib; first compound 10 µM
  relative viability: 0.473
Zebularine + Bortezomib; first compound 31.62 µM
  relative viability: 0.253
Zebularine + Bortezomib; first compound 100 µM
  relative viability: 0.217

## LK-2
Zebularine + Tozasertib; first compound 1 µM
  relative viability: 0.179
Zebularine + Tozasertib; first compound 3.162 µM
  relative viability: 0.188
Zebularine + Tozasertib; first compound 10 µM
  relative viability: 0.171
Zebularine + Tozasertib; first compound 31.62 µM
  relative viability: 0.178
Zebularine + Tozasertib; first compound 100 µM
  relative viability: 0.166
Zebularine + Pemetrexed; first compound 1 µM
  relative viability: 0.321
Zebularine + Pemetrexed; first compound 3.162 µM
  relative viability: 0.298
Zebularine + Pemetrexed; first compound 10 µM
  relative viability: 0.173
Zebularine + Pemetrexed; first compound 31.62 µM
  relative viability: 0.253
Zebularine + Pemetrexed; first compound 100 µM
  relative viability: 0.131
BI-D1870 + Dasatinib; first compound 0.04 µM
  relative viability: 0.442
BI-D1870 + Dasatinib; first compound 0.1265 µM
  relative viability: 0.359
BI-D1870 + Dasatinib; first compound 0.4 µM
  relative viability: 0.239
BI-D1870 + Dasatinib; first compound 1.265 µM
  relative viability: 0.241
BI-D1870 + Dasatinib; first compound 4 µM
  relative viability: 0.281

## NCI-H358
Zebularine + Tozasertib; first compound 1 µM
  relative viability: 0.111
Zebularine + Tozasertib; first compound 3.162 µM
  relative viability: 0.101
Zebularine + Tozasertib; first compound 10 µM
  relative viability: 0.0883
Zebularine + Tozasertib; first compound 31.62 µM
  relative viability: 0.108
Zebularine + Tozasertib; first compound 100 µM
  relative viability: 0.0887
Zebularine + Pemetrexed; first compound 1 µM
  relative viability: 0.159
Zebularine + Pemetrexed; first compound 3.162 µM
  relative viability: 0.187
Zebularine + Pemetrexed; first compound 10 µM
  relative viability: 0.161
Zebularine + Pemetrexed; first compound 31.62 µM
  relative viability: 0.162
Zebularine + Pemetrexed; first compound 100 µM
  relative viability: 0.179
BI-D1870 + Dasatinib; first compound 0.04 µM
  relative viability: 0.177
BI-D1870 + Dasatinib; first compound 0.1265 µM
  relative viability: 0.172
BI-D1870 + Dasatinib; first compound 0.4 µM
  relative viability: 0.195
BI-D1870 + Dasatinib; first compound 1.265 µM
  relative viability: 0.257
BI-D1870 + Dasatinib; first compound 4 µM
  relative viability: 0.288

## NCI-H522
Zebularine + Tozasertib; first compound 1 µM
  relative viability: 0.549
Zebularine + Tozasertib; first compound 3.162 µM
  relative viability: 0.526
Zebularine + Tozasertib; first compound 10 µM
  relative viability: 0.527
Zebularine + Tozasertib; first compound 31.62 µM
  relative viability: 0.522
Zebularine + Tozasertib; first compound 100 µM
  relative viability: 0.577
Zebularine + Pemetrexed; first compound 1 µM
  relative viability: 0.888
Zebularine + Pemetrexed; first compound 3.162 µM
  relative viability: 1.1
Zebularine + Pemetrexed; first compound 10 µM
  relative viability: 0.967
Zebularine + Pemetrexed; first compound 31.62 µM
  relative viability: 1.03
Zebularine + Pemetrexed; first compound 100 µM
  relative viability: 0.95
BI-D1870 + Dasatinib; first compound 0.04 µM
  relative viability: 0.91
BI-D1870 + Dasatinib; first compound 0.1265 µM
  relative viability: 0.874
BI-D1870 + Dasatinib; first compound 0.4 µM
  relative viability: 0.777
BI-D1870 + Dasatinib; first compound 1.265 µM
  relative viability: 0.99
BI-D1870 + Dasatinib; first compound 4 µM
  relative viability: 0.926

## NCI-H727
Zebularine + Tozasertib; first compound 1 µM
  relative viability: 0.639
Zebularine + Tozasertib; first compound 3.162 µM
  relative viability: 0.645
Zebularine + Tozasertib; first compound 10 µM
  relative viability: 0.602
Zebularine + Tozasertib; first compound 31.62 µM
  relative viability: 0.623
Zebularine + Tozasertib; first compound 100 µM
  relative viability: 0.386
BI-D1870 + Dasatinib; first compound 0.04 µM
  relative viability: 0.432
BI-D1870 + Dasatinib; first compound 0.1265 µM
  relative viability: 0.34
BI-D1870 + Dasatinib; first compound 0.4 µM
  relative viability: 0.27
BI-D1870 + Dasatinib; first compound 1.265 µM
  relative viability: 0.417
BI-D1870 + Dasatinib; first compound 4 µM
  relative viability: 0.312
Zebularine + Bortezomib; first compound 1 µM
  relative viability: 0.901
Zebularine + Bortezomib; first compound 3.162 µM
  relative viability: 0.816
Zebularine + Bortezomib; first compound 10 µM
  relative viability: 0.737
Zebularine + Bortezomib; first compound 31.62 µM
  relative viability: 0.943
Zebularine + Bortezomib; first compound 100 µM
  relative viability: 0.762
